Literature values, collected in patent publication US7820851B2, “Isotopically labeled polyfluorinated compound useful as an imaging tracer” (PerkinElmer Health Sciences, Inc., priority 2006, dated 2010).
Where two headings read alike, the source gives them in different places.

Assays:
[1] = reported value; context: PFOA levels in American residents

Structure (SMILES): O=C(O)C(F)(F)C(F)(F)C(F)(F)C(F)(F)C(F)(F)C(F)(F)C(F)(F)F [PFOA, Perfluorooctanoic acid]
- elimination half-life [1]: 4 years
- primary tissues of distribution of PFOA-derived carbon-14 (female rats): liver, plasma, and kidney
- elimination of PFOA-derived radioactivity in the urine (female rats, carbon-14 labeled PFOA): rapidly
- primary tissues of distribution of PFOA-derived carbon-14 (male rats): liver and plasma
- administered carbon-14 eliminated in the urine (male rats, carbon-14 labeled PFOA, in the same period): 6%
